Values belong to the molecule of their own block, whether it stands above or below them.
What was measured:
[1] = Intrinsic dissolution rate (Intrinsic Dissolution Tester, Van Kel Type); assay type: physicochemical; conditions: pH 3 and pH 6, 37° C.
Procedure: In addition to the above data, the intrinsic dissolution rates (IDR's) for the new pseudopolymorph of the invention and the commercial dihydrate, at pH 3 and pH 6 and 37° C., were determined by Intrinsic Dissolution Tester, Van Kel Type.

[2] = Dissolution profiles by USP Method 2 (PharmaTest Dissolution Tester), dissolved content by HPLC; assay type: physicochemical
Procedure: The comparative dissolution profiles were determined by USP Method 2, PharmaTest Dissolution Tester, PTW SII; the content of dissolved 9-deoxo-9a-aza-9a-methyl-9a-homoerythromycin A was measured by HPLC. The data thus obtained are set forth in Table 6 below, and plotted in FIGS. 17 and 18.
The comparative dissolution profiles were determined by USP Method 2, PharmaTest Dissolution Tester, PTW SII; the content of dissolved 9-deoxo-9a-aza-9a-methyl-9a-homoerythromycin A was measured by HPLC. The data thus obtained are set forth in Table 9 below, and plotted in FIG. 22.

in vivo = conditions: rat, 50 mg/kg
From the text: 32 animals were studied using a cross-over experimental design experiment. A non-compartmental analysis was used to determine the concentrations of the respective materials in whole blood and plasma as a function of time.

[3] = Solid state stability by X-ray powder diffraction at varied humidity and temperature; assay type: physicochemical; conditions: 5% RH to 75% RH; 30° C. to 75° C.
Procedure: The solid state stability of the 9-deoxo-9a-aza-9a-methyl-9a-homoerythromycin A pseudopolymorph Ia (x=1, y=0) was determined by measuring the solid state x-ray powder diffraction pattern for this material at four different percent relative humidities (% RH), ranging from 5% RH to 75% RH, and at five different temperatures, increasing from 30° C. to 75° C. using Philips X'PertPRO powder X-ray diffractometer equipped with Anton Paar TTK-100 humidity camera used for non-ambient data collection.

[4] = Similarity factors (f2) calculated for the dissolution profiles; assay type: physicochemical
Procedure: In order to further assess the data from Table 6, similarity factors (f2) were calculated according to the method described in Note for Guidance on the Investigation of Bioavailability and Bioequivalence (EMEA, December 1998, London) for the dissolution profiles of the two species (9-deoxo-9a-aza-9a-methyl-9a-homoerythromycin A, pseudopolymorph Ia of the present invention, and commercial 9-deoxo-9a-aza-9a-methyl-9a-homoerythromycin A dihydrate).

Intrinsic dissolution rate (IDR) [1]: about 1.8 mg min^−1 cm^−2
Percent dissolved ([2]; pH 3, 37° C., 5 minutes): 3.9%
Percent dissolved ([2]; pH 3, 37° C., 10 minutes): 8.1%
Percent dissolved ([2]; pH 3, 37° C., 20 minutes): 14.6%
Percent dissolved ([2]; pH 3, 37° C., 45 minutes): 26.7%
Percent dissolved ([2]; pH 3, 37° C., 60 minutes): 33.3%
Percent dissolved ([2]; pH 3, 37° C., 90 minutes): 39.1%
Percent dissolved ([2]; pH 6, 37° C., 5 minutes): 14.5%
Percent dissolved ([2]; pH 6, 37° C., 10 minutes): 27.3%
Percent dissolved ([2]; pH 6, 37° C., 20 minutes): 44.2%
Percent dissolved ([2]; pH 6, 37° C., 45 minutes): 69.1%
Percent dissolved ([2]; pH 6, 37° C., 60 minutes): 73.7%
Percent dissolved ([2]; pH 6, 37° C., 90 minutes): 75.0%
AUC(0-48) (in vivo): 31696.6 nghr/ml
Tmax (in vivo; po): 2 h
SMILES: CC[C@H]1OC(=O)[C@H](C)[C@@H](O[C@H]2C[C@@](C)(OC)[C@@H](O)[C@H](C)O2)C(C)[C@@H](O[C@@H]2O[C@H](C)CC(N(C)C)[C@H]2O)[C@](C)(O)C[C@@H](C)CN(C)[C@H](C)[C@@H](O)[C@]1(C)O (stereo partly shown) [9-deoxo-9a-aza-9a-methyl-9a-homoerythromycin A dihydrate, reference compound]

Intrinsic dissolution rate (IDR) [1]: 2.5-2.8 mg min^−1 cm^−2
IDR higher than the IDR of the dihydrate ([1]; relative to dihydrate): 40 to 50%
Percent dissolved ([2]; pH 3, 37° C., 5 minutes, listed as Ia (Example 19, Batch 1)): 25.1%
Percent dissolved ([2]; pH 3, 37° C., 5 minutes, listed as Ia (Example 19, Batch 3)): 21.1%
Percent dissolved ([2]; pH 3, 37° C., 5 minutes, listed as Ia (Example 19 Batch 2)): 18.5%
Percent dissolved ([2]; pH 3, 37° C., 10 minutes, listed as Ia (Example 19, Batch 1)): 37.1%
Percent dissolved ([2]; pH 3, 37° C., 10 minutes, listed as Ia (Example 19, Batch 3)): 32.4%
Percent dissolved ([2]; pH 3, 37° C., 10 minutes, listed as Ia (Example 19 Batch 2)): 30.7%
Percent dissolved ([2]; pH 3, 37° C., 20 minutes, listed as Ia (Example 19, Batch 1)): 45.8%
Percent dissolved ([2]; pH 3, 37° C., 20 minutes, listed as Ia (Example 19, Batch 3)): 43.3%
Percent dissolved ([2]; pH 3, 37° C., 20 minutes, listed as Ia (Example 19 Batch 2)): 45.1%
Percent dissolved ([2]; pH 3, 37° C., 45 minutes, listed as Ia (Example 19, Batch 1)): 55.5%
Percent dissolved ([2]; pH 3, 37° C., 45 minutes, listed as Ia (Example 19, Batch 3)): 56%
Percent dissolved ([2]; pH 3, 37° C., 45 minutes, listed as Ia (Example 19 Batch 2)): 60.9%
Percent dissolved ([2]; pH 3, 37° C., 60 minutes, listed as Ia (Example 19, Batch 1)): 58.3%
Percent dissolved ([2]; pH 3, 37° C., 60 minutes, listed as Ia (Example 19, Batch 3)): 61.1%
Percent dissolved ([2]; pH 3, 37° C., 60 minutes, listed as Ia (Example 19 Batch 2)): 64.8%
Percent dissolved ([2]; pH 3, 37° C., 90 minutes, listed as Ia (Example 19, Batch 1)): 62.9%
Percent dissolved ([2]; pH 3, 37° C., 90 minutes, listed as Ia (Example 19, Batch 3)): 64.7%
Percent dissolved ([2]; pH 3, 37° C., 90 minutes, listed as Ia (Example 19 Batch 2)): 70%
Percent dissolved ([2]; pH 6, 37° C., 5 minutes, listed as Ia (Example 19, Batch 1)): 67.0%
Percent dissolved ([2]; pH 6, 37° C., 5 minutes, listed as Ia (Example 19, Batch 3)): 70.2%
Percent dissolved ([2]; pH 6, 37° C., 5 minutes, listed as Ia (Example 19 Batch 2)): 71.7%
Percent dissolved ([2]; pH 6, 37° C., 10 minutes, listed as Ia (Example 19, Batch 1)): 73.2%
Percent dissolved ([2]; pH 6, 37° C., 10 minutes, listed as Ia (Example 19, Batch 3)): 77.3%
Percent dissolved ([2]; pH 6, 37° C., 10 minutes, listed as Ia (Example 19 Batch 2)): 81.4%
Percent dissolved ([2]; pH 6, 37° C., 20 minutes, listed as Ia (Example 19, Batch 1)): 76.7%
Percent dissolved ([2]; pH 6, 37° C., 20 minutes, listed as Ia (Example 19, Batch 3)): 77%
Percent dissolved ([2]; pH 6, 37° C., 20 minutes, listed as Ia (Example 19 Batch 2)): 81.6%
Percent dissolved ([2]; pH 6, 37° C., 45 minutes, listed as Ia (Example 19, Batch 1)): 76.7%
Percent dissolved ([2]; pH 6, 37° C., 45 minutes, listed as Ia (Example 19, Batch 3)): 77.6%
Percent dissolved ([2]; pH 6, 37° C., 45 minutes, listed as Ia (Example 19 Batch 2)): 80.4%
Percent dissolved ([2]; pH 6, 37° C., 60 minutes, listed as Ia (Example 19, Batch 1)): 74.5%
Percent dissolved ([2]; pH 6, 37° C., 60 minutes, listed as Ia (Example 19, Batch 3)): 78%
Percent dissolved ([2]; pH 6, 37° C., 60 minutes, listed as Ia (Example 19 Batch 2)): 79.9%
Percent dissolved ([2]; pH 6, 37° C., 90 minutes, listed as Ia (Example 19, Batch 1)): 75.8%
Percent dissolved ([2]; pH 6, 37° C., 90 minutes, listed as Ia (Example 19, Batch 3)): 79.2%
Percent dissolved ([2]; pH 6, 37° C., 90 minutes, listed as Ia (Example 19 Batch 2)): 80%
AUC(0-12) higher relative to the commercial dihydrate (in vivo): approximately 20%
AUC(0-48) (in vivo): 35659.0 nghr/ml
Tmax (in vivo): 2 h
Solid state stability (phase transitions by x-ray powder diffraction) [3]: no phase-transitions occur
Similarity factor (f2) ([4]; Batch 1 vs. Batch 2 of Example 19, pH = 3): 61.3
Similarity factor (f2) ([4]; Batch 1 vs. Batch 2 of Example 19, pH = 6): 63.1
Similarity factor (f2) ([4]; Batch 1 vs. Batch 3 of Example 19, pH = 3): 74.7
Similarity factor (f2) ([4]; Batch 1 vs. Batch 3 of Example 19, pH = 6): 75.4
Similarity factor (f2) ([4]; Batch 2 vs. Batch 3 of Example 19, pH = 3): 71.3
Similarity factor (f2) ([4]; Batch 2 vs. Batch 3 of Example 19, pH = 6): 75.3
Similarity factor (f2) ([4]; Dihydrate vs. Batch 1 of Example 19, pH = 3): 28.6
Similarity factor (f2) ([4]; Dihydrate vs. Batch 1 of Example 19, pH = 6): 25
Similarity factor (f2) ([4]; Dihydrate vs. Batch 2 of Example 19, pH = 3): 27.5
Similarity factor (f2) ([4]; Dihydrate vs. Batch 2 of Example 19, pH = 6): 22.2
Similarity factor (f2) ([4]; Dihydrate vs. Batch 3 of Example 19, pH = 3): 29.4
Similarity factor (f2) ([4]; Dihydrate vs. Batch 3 of Example 19, pH = 6): 23.7
SMILES: CC[C@H]1OC(=O)[C@H](C)[C@@H](O[C@H]2C[C@@](C)(OC)[C@@H](O)[C@H](C)O2)[C@H](C)[C@@H](O[C@@H]2O[C@H](C)C[C@H](N(C)C)[C@H]2O)[C@](C)(O)C[C@@H](C)CN(C)[C@H](C)[C@@H](O)[C@]1(C)O [Pseudopolymorph Ia, 9-deoxo-9a-aza-9a-methyl-9a-homoerythromycin A]

Percent dissolved ([2]; pH 6, 37° C., 5 minutes, listed as Ik (Example 6)): 99.8%
Percent dissolved ([2]; pH 6, 37° C., 10 minutes, listed as Ik (Example 6)): 99.9%
Percent dissolved ([2]; pH 6, 37° C., 20 minutes, listed as Ik (Example 6)): 97.1%
Percent dissolved ([2]; pH 6, 37° C., 45 minutes, listed as Ik (Example 6)): 97.6%
SMILES: CC[C@H]1OC(=O)[C@H](C)[C@@H](O[C@H]2C[C@@](C)(OC)[C@@H](O)[C@H](C)O2)[C@H](C)[C@@H](O[C@@H]2O[C@H](C)C[C@H](N(C)C)[C@H]2O)[C@](C)(O)C[C@@H](C)CN(C)[C@H](C)[C@@H](O)[C@]1(C)O [Pseudopolymorph Ik, 9-deoxo-9a-aza-9a-methyl-9a-homoerythromycin A]

Source: US7569549B2, “Isostructural pseudopolymorphs of 9-deoxo-9a-aza-9a-methyl-9a-homoerythromycin A” (Pliva Hrvatska D.O.O., priority 2002, dated 2009)
